According to publication PMC12592420, “A mismatch in enzyme-redox partnerships underlies divergent cytochrome P450 activities between human hepatocytes and microsomes” (Communications Biology, 2025):
Where “and” joins values, the source holds several entries; their conditions need not be identical. Equal values may be shown once.

Assays:
in vitro [1] = settings: human, Caco-2
[2] = Free fraction in HLM incubation, equilibrium dialysis; format: in vitro ADME, human; settings: fraction unbound, measured or estimated by in silico models of Fuinc
in vitro [3] = settings: human, hepatocytes; for hepatocyte CLint: both
Procedure: (§1) Cryopreserved HH prepared from a mixed-gender pool of twenty donors (product X008000, lot EEO, BIOIVT), ten-donors (product S01205, lot MTJ, BIOIVT), ten donors (product S01205 lot LYB, BIOIVT) were utilised in the experiments. Cryopreserved HH were rapidly thawed in a water bath set at 37 °C and added to Leibovitz media that had been pre-warmed in the water bath. The suspension of cells was mixed gently and centrifuged at 40 × g for 4 min at room temperature. Excess media was removed, and the cells were re-suspended in 5 mL of fresh Leibovitz media. The cells were counted using an automated cell counter (Cellometer).

[4] = CLint in NADH-supplemented human liver microsomes; settings: for microsomal CLint at 1 µM / CLint scaled at 1 µM: human
Procedure: (§2) Calculation and scaling of CLint,u was done using the equation below and 45 mg of microsomal protein per gram of liver. HLMCLint,u=ln2/x1/t1/2(min)xmLincubation/mgmicrosomalproteinx45mgmicrosomalprotein/gliverx21gliver/kg/Fuinc

[5] = CLint in NADPH-supplemented human liver microsomes; settings: for microsomal CLint at 1 µM / CLint scaled at 1 µM: human; for HLM/HH (ratio of scaled CLint,u): NADPH-HLM average over HH average
Procedure: as §2

rat hepatocytes = test: Free fraction in rat hepatocytes as surrogate for HH, equilibrium dialysis; format: in vitro ADME; settings: fraction unbound, measured or estimated by in silico models of Fuinc
[6] = LogD pH 7.4, octanol/phosphate buffer; settings: for logD: octanol/phosphate buffer, pH 7.4; for LogD pH 7.4: at least one determination
[7] = Intrinsic permeability in Caco-2 cells with efflux inhibited; settings: human, Caco-2
CYP1A2-Cytb5R = biological target: T1, CYP1A2-Cytb5R (Homo sapiens, UniProt P05177); test: Turnover by non-canonical recombinant CYP1A2-Cytb5R; format: in vitro ADME; settings: noncanonical CYP1A2-Cytb5R
T1 construct: purchased BioIVT (custom synthesis) CE00001 (CYP1A2), batch CPD034-1A2-30; host or cells: bactosomes
T1 sequence (P05177 1-516): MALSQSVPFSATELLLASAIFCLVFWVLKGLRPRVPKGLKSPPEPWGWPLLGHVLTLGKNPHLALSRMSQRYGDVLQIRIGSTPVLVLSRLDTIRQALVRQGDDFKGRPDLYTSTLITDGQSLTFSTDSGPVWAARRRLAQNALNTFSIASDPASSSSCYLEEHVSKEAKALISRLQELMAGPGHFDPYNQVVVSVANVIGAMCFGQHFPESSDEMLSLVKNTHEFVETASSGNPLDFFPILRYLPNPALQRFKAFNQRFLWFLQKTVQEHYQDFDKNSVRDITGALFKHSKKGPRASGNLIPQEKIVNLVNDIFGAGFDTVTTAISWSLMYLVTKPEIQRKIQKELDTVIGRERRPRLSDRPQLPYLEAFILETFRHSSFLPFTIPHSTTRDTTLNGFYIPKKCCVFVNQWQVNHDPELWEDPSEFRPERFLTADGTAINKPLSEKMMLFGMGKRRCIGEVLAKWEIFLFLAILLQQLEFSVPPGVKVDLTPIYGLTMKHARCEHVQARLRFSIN
Source text: As commercial recombinant human CYPs co-express the individual CYP and reductase with an option to include cytochrome b5. A custom synthesis co-expressing CYP3A4 or CYP1A2 and Cytb5R plus cytochrome b5 was, therefore, ordered from BioIVT and the bactosomes were compared with canonical CYP-POR enzymes plus cytochrome b5.

Cytb5R = Cytb5R for cofactor; cited from earlier work
POR = POR for cofactor; cited from earlier work
human hepatocytes (HH) = test: in vitro; settings: for HH_CLint: single determination; for HH_CLint / HH_scaled_CLint,u: Fig. 4a
Procedure: as §1

Caco-2 cells = test: Intrinsic permeability in Caco-2 cells with efflux inhibited; settings: intrinsic (passive) permeability, at least one determination
[8] = human liver microsomes + NADH, pH 7.4
[9] = human liver microsomes + NADPH, pH 7.4
[10] = human liver microsomes, pH 7.4, NADPH_HLM_scaled_CLint,u, Fig. 4a,d
[11] = 1 µM, single determination, Fig. 4a,d
[12] = Scaled HH CLint,u average, HH, average, Fig. 1
[13] = Scaled HH CLint,u, HH, individual determinations 1-3, Fig. 1
[14] = HH, individual determinations 1-3, Fig. 1
[15] = NADPH-HLM, individual determinations 1-3, Fig. 1
[16] = human liver microsomes + NADPH, pH 7.4, Scaled HLM CLint,u, NADPH-HLM, individual determinations 1-3, Fig. 1
[17] = human liver microsomes, pH 7.4, Scaled HLM CLint,u average, NADPH-HLM, average, Fig. 1

## O=C1Nc2ccc(Cl)cc2C(c2ccccc2Cl)=NC1O (centres unmarked) [Lorazepam]
In vitro [1]
  Papp: 67.2 ×10⁻⁶ cm/s
[2]
  fu_HLM: 0.724
In vitro [3]; HH_CLint, 1 µM, single determination, Fig. 4a
  hepatocyte CLint: 2.77 µL/min/1e6 cells
In vitro [3]; HH_scaled_CLint,u, Fig. 4a
  CLint scaled: 9.63 mL/min/kg
[4]; microsomes, pH 7.4, HLM_NADH CLint, 1 µM, single determination, Fig. 4a,d
  microsomal CLint at 1 µM: 3 µL/min/mg
[4]; microsomes, pH 7.4, NADH_HLM_scaled_CLint,u, Fig. 4a,d
  CLint scaled at 1 µM: 3.92 mL/min/kg
[5]; microsomes, pH 7.4, HLM_NADPH CLint, 1 µM, single determination, Fig. 4a,d
  microsomal CLint at 1 µM: 4.99 µL/min/mg
[5]; microsomes, pH 7.4, NADPH_HLM_scaled_CLint,u, Fig. 4a,d
  CLint scaled at 1 µM: 6.51 mL/min/kg
Rat hepatocytes
  fu_ratHH: 0.724

## CCOc1ccc(NC(C)=O)cc1 [Phenacetin]
[2]
  fu_HLM: 0.948
[6]
  logD: 1.48
In vitro [3]
  hepatocyte CLint: 7.38 µL/min/1e6 cells
In vitro [3]; HH_scaled_CLint,u, Fig. 4a
  CLint scaled: 19.5 mL/min/kg
[7]
  Papp at 2 h, 10 µM: 76.1 ×10⁻⁶ cm/s
[4]; [8]
  microsomal CLint at 1 µM: 5.68 µL/min/mg
[4]; human liver microsomes, pH 7.4
  CLint scaled at 1 µM: 5.66 mL/min/kg
[5]; [9]
  microsomal CLint at 1 µM: 24.5 µL/min/mg
[5]; [10]
  CLint scaled at 1 µM: 24.4 mL/min/kg
Rat hepatocytes
  fu_ratHH: 0.955
CYP1A2-Cytb5R
  turnover (metabolite formation or disappearance of parent): no detectable turnover

## NC(=O)C1=CN([C@@H]2O[C@H](COP(=O)(O)OP(=O)(O)OC[C@H]3O[C@@H](n4cnc5c(N)ncnc54)[C@H](O)[C@@H]3O)[C@@H](O)[C@H]2O)C=CC1 [NADH]
Cytb5R
  Km: 6 µM
POR
  Km: 48000 µM

## NC(=O)C1=CN([C@@H]2O[C@H](COP(=O)(O)OP(=O)(O)OC[C@H]3O[C@@H](n4cnc5c(N)ncnc54)[C@H](OP(=O)(O)O)[C@@H]3O)[C@@H](O)[C@H]2O)C=CC1 [NADPH]
Cytb5R
  Km: 1000 µM
POR
  Km: 2 to 15 µM

## CCN(C(=O)c1cc(F)ccc1Oc1nncnc1N1CCC2(C1)CN([C@H](CCCN(C)CCOC)C(C)C)C2)C(C)C [Bleximenib]
[2]
  fu_HLM: 0.721
[6]
  LogD pH 7.4: 0.74
Human hepatocytes (HH); 1 µM
  HH_CLint: 1.166 uL/min/106 cells
Human hepatocytes (HH)
  HH_scaled_CLint,u: 3.701 mL/min/kg
Caco-2 cells
  Caco-2 Papp: 0.575 10-6 cm/s
[5]; [11]
  HLM_NADPH CLint: 34.3 µL/min/mg
[5]; Fig. 4a,d
  NADPH_HLM_scaled_CLint,u: 44.9563 mL/min/kg
Rat hepatocytes
  fu_ratHH: 0.794

## C[C@]12C=CC(=O)C=C1CC[C@@H]1[C@@H]2[C@@H](O)C[C@@]2(C)[C@H]1CC[C@]2(O)C(=O)CO [Prednisolone]
In vitro [3]; [12]
  CLint scaled: 13.7 mL/min/kg
In vitro [3]; [13]
  CLint scaled: 14.7 mL/min/kg
Human hepatocytes (HH); [14]
  Scaled HH CLint,u: 12.4648 mL/min/kg and 14.0629 mL/min/kg
[5]; Fig. 1
  HLM/HH (ratio of scaled CLint,u): 2.917
[5]; [15]
  Scaled HLM CLint,u: 38.7639 mL/min/kg
[5]; [16]
  CLint scaled at 1 µM: 40.8 mL/min/kg
[5]; [17]
  CLint scaled at 1 µM: 40.1 mL/min/kg

## CCC1=C[C@@H]2CN(C1)Cc1c([nH]c3ccccc13)[C@@](C(=O)OC)(c1cc3c(cc1OC)N(C)[C@H]1[C@@](O)(C(=O)OC)[C@H](OC(C)=O)[C@]4(CC)C=CCN5CC[C@]31[C@@H]54)C2 [Vinorelbin]
In vitro [3]; Scaled HH CLint,u
  CLint scaled at 1 µM: 38.9 mL/min/kg
In vitro [3]; Scaled HH CLint,u average
  CLint scaled at 1 µM: 43.6 mL/min/kg
Human hepatocytes (HH); human, hepatocytes, 1 µM
  Scaled HH CLint,u: 48.4191 mL/min/kg
[5]; Fig. 1
  HLM/HH (ratio of scaled CLint,u): 13.7107
[5]; [15]
  Scaled HLM CLint,u: 640.935 mL/min/kg and 717.808 mL/min/kg
[5]; [16]
  CLint scaled at 1 µM: 436 mL/min/kg
[5]; [17]
  CLint scaled at 1 µM: 598 mL/min/kg

## C[C@]12CC[C@H]3[C@@H](CCC4=CC(=O)CC[C@@]43C)[C@@H]1CC[C@@H]2O [Testosterone]
In vitro [3]; [12]
  CLint scaled: 1320 mL/min/kg
In vitro [3]; [13]
  CLint scaled: 1780 mL/min/kg
Human hepatocytes (HH); [14]
  Scaled HH CLint,u: 1005.17 mL/min/kg and 1161.02 mL/min/kg
[5]; [15]
  Scaled HLM CLint,u: 250.062 mL/min/kg and 237.027 mL/min/kg
[5]; microsomes, pH 7.4, Scaled HLM CLint,u average, NADPH-HLM, average, Fig. 1
  CLint scaled at 1 µM: 246 mL/min/kg
[5]; microsomes, pH 7.4, Scaled HLM CLint,u, NADPH-HLM, individual determinations 1-3, Fig. 1
  CLint scaled at 1 µM: 251 mL/min/kg

## C[C@]12CCC(=O)C=C1CC[C@@H]1[C@@H]2[C@@H](O)C[C@@]2(C)[C@H]1CC[C@]2(O)C(=O)CO [hydrocortisone]
In vitro [3]; [12]
  CLint scaled: 19.3 mL/min/kg
In vitro [3]; [13]
  CLint scaled: 22.4 mL/min/kg
Human hepatocytes (HH); [14]
  Scaled HH CLint,u: 16.444 mL/min/kg and 19.1349 mL/min/kg
[5]; Fig. 1
  HLM/HH (ratio of scaled CLint,u): 2.834
[5]; [15]
  Scaled HLM CLint,u: 57.5167 mL/min/kg and 51.9108 mL/min/kg
[5]; [16]
  CLint scaled at 1 µM: 54.9 mL/min/kg
[5]; [17]
  CLint scaled at 1 µM: 54.8 mL/min/kg

## AZ23
[2]
  fu_HLM: 0.583
[6]
  LogD pH 7.4: 3.08
Human hepatocytes (HH); 1 µM
  HH_CLint: 3.309 uL/min/106 cells
Human hepatocytes (HH)
  HH_scaled_CLint,u: 14.4518 mL/min/kg
Caco-2 cells
  Caco-2 Papp: 66.417 10-6 cm/s
[4]; [11]
  HLM_NADH CLint: 6.34 µL/min/mg
[4]; Fig. 4a,d
  NADH_HLM_scaled_CLint,u: 10.2767 mL/min/kg
[5]; [11]
  HLM_NADPH CLint: 56.607 µL/min/mg
[5]; Fig. 4a,d
  NADPH_HLM_scaled_CLint,u: 91.7558 mL/min/kg
Rat hepatocytes
  fu_ratHH: 0.577

## CCCc1nn(C)c2c(=O)[nH]c(-c3cc(S(=O)(=O)N4CCN(C)CC4)ccc3OCC)nc12 [Sildenafil]
[2]
  fu_HLM: 0.638
[6]
  logD: 2.74
In vitro [3]
  hepatocyte CLint: 14.5 µL/min/1e6 cells
In vitro [3]; HH_scaled_CLint,u, Fig. 4a
  CLint scaled: 57.7 mL/min/kg
[7]
  Papp at 2 h, 10 µM: 66 ×10⁻⁶ cm/s
[4]; [8]
  microsomal CLint at 1 µM: 29.1 µL/min/mg
[4]; human liver microsomes, pH 7.4
  CLint scaled at 1 µM: 43.1 mL/min/kg
[5]; [9]
  microsomal CLint at 1 µM: 134 µL/min/mg
[5]; [10]
  CLint scaled at 1 µM: 199 mL/min/kg
Rat hepatocytes
  fu_ratHH: 0.633

## C[C@]12C=CC(=O)C=C1CC[C@@H]1[C@@H]2C(=O)C[C@@]2(C)[C@H]1CC[C@]2(O)C(=O)CO [Prednisone]
In vitro [3]; [12]
  CLint scaled: 56.3 mL/min/kg
In vitro [3]; [13]
  CLint scaled: 72.8 mL/min/kg
Human hepatocytes (HH); [14]
  Scaled HH CLint,u: 43.6458 mL/min/kg and 52.3108 mL/min/kg
[5]; Fig. 1
  HLM/HH (ratio of scaled CLint,u): 0.4866
[5]; [15]
  Scaled HLM CLint,u: 26.9421 mL/min/kg and 25.4228 mL/min/kg
[5]; [16]
  CLint scaled at 1 µM: 29.8 mL/min/kg
[5]; [17]
  CLint scaled at 1 µM: 27.4 mL/min/kg
